Like-named read-outs stand apart in the source and are kept apart here.
Assays:
AML cell lines = AML cell lines harboring various mutations; cited from earlier work
c-kit = c-kit (Homo sapiens, UniProt P10721); test: HotSpot radioisotope filter-binding kinase assay; type: biochemical
TNK1 = molecular target: T1, TNK1 (Homo sapiens, UniProt Q13470); test: HotSpot radioisotope filter-binding kinase assay; type: biochemical
T1 sequence (Q13470 1-666): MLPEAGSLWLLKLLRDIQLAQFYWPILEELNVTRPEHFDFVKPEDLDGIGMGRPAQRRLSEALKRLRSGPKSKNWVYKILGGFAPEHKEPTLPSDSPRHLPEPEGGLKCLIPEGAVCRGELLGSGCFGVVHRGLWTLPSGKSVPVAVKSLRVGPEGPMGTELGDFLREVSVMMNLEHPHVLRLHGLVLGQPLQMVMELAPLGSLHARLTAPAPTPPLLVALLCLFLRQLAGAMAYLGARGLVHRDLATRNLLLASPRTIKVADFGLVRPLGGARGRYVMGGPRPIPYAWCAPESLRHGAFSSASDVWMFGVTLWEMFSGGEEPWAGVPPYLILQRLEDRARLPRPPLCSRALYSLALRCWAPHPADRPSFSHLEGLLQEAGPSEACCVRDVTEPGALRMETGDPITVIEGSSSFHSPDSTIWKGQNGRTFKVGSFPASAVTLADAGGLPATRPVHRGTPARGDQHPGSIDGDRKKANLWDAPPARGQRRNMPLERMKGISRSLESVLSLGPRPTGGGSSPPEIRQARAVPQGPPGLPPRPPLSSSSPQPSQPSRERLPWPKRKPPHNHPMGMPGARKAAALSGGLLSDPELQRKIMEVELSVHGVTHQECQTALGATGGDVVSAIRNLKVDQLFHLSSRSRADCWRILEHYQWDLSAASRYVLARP

JAK1 = JAK1 (Homo sapiens, UniProt P23458); test: HotSpot radioisotope filter-binding kinase assay; type: biochemical
Sequence of JAK1 (P23458 whole entry): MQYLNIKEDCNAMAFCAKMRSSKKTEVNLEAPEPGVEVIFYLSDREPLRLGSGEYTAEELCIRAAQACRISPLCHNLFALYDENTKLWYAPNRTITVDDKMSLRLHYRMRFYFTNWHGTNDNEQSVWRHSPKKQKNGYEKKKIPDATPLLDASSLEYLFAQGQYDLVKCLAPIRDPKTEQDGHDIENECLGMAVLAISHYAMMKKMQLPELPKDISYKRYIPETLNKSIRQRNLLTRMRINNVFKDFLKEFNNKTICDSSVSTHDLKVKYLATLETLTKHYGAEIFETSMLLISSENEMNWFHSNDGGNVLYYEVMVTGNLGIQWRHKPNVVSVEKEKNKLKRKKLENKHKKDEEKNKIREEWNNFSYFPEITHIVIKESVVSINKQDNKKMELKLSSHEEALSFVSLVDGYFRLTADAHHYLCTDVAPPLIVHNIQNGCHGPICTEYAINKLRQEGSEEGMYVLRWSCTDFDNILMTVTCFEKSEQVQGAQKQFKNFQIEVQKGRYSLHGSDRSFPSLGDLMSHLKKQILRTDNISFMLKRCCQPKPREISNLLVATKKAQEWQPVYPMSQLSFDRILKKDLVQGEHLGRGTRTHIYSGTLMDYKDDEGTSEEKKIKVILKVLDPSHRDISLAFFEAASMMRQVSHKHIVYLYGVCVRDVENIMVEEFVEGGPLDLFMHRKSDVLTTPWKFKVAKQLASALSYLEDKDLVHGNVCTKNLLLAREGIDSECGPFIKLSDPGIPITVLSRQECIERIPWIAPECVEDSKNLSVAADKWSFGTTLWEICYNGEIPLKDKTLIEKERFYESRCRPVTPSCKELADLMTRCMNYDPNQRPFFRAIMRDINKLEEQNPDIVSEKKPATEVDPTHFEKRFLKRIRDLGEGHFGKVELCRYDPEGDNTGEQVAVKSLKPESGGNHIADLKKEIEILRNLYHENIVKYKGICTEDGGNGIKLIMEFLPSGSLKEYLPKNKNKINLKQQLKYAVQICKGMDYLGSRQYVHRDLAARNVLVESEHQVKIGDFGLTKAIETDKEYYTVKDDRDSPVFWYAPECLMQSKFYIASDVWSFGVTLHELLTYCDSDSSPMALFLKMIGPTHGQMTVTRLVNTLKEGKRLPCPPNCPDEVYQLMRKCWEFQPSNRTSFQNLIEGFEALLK

phosphorylated IRAK1 = details: AML cells; cited from earlier work
ROS1 [1] = molecular target: T2, ROS1 (Homo sapiens, UniProt P08922); test: HotSpot radioisotope filter-binding kinase assay; type: biochemical
T2 sequence (P08922 28-2347): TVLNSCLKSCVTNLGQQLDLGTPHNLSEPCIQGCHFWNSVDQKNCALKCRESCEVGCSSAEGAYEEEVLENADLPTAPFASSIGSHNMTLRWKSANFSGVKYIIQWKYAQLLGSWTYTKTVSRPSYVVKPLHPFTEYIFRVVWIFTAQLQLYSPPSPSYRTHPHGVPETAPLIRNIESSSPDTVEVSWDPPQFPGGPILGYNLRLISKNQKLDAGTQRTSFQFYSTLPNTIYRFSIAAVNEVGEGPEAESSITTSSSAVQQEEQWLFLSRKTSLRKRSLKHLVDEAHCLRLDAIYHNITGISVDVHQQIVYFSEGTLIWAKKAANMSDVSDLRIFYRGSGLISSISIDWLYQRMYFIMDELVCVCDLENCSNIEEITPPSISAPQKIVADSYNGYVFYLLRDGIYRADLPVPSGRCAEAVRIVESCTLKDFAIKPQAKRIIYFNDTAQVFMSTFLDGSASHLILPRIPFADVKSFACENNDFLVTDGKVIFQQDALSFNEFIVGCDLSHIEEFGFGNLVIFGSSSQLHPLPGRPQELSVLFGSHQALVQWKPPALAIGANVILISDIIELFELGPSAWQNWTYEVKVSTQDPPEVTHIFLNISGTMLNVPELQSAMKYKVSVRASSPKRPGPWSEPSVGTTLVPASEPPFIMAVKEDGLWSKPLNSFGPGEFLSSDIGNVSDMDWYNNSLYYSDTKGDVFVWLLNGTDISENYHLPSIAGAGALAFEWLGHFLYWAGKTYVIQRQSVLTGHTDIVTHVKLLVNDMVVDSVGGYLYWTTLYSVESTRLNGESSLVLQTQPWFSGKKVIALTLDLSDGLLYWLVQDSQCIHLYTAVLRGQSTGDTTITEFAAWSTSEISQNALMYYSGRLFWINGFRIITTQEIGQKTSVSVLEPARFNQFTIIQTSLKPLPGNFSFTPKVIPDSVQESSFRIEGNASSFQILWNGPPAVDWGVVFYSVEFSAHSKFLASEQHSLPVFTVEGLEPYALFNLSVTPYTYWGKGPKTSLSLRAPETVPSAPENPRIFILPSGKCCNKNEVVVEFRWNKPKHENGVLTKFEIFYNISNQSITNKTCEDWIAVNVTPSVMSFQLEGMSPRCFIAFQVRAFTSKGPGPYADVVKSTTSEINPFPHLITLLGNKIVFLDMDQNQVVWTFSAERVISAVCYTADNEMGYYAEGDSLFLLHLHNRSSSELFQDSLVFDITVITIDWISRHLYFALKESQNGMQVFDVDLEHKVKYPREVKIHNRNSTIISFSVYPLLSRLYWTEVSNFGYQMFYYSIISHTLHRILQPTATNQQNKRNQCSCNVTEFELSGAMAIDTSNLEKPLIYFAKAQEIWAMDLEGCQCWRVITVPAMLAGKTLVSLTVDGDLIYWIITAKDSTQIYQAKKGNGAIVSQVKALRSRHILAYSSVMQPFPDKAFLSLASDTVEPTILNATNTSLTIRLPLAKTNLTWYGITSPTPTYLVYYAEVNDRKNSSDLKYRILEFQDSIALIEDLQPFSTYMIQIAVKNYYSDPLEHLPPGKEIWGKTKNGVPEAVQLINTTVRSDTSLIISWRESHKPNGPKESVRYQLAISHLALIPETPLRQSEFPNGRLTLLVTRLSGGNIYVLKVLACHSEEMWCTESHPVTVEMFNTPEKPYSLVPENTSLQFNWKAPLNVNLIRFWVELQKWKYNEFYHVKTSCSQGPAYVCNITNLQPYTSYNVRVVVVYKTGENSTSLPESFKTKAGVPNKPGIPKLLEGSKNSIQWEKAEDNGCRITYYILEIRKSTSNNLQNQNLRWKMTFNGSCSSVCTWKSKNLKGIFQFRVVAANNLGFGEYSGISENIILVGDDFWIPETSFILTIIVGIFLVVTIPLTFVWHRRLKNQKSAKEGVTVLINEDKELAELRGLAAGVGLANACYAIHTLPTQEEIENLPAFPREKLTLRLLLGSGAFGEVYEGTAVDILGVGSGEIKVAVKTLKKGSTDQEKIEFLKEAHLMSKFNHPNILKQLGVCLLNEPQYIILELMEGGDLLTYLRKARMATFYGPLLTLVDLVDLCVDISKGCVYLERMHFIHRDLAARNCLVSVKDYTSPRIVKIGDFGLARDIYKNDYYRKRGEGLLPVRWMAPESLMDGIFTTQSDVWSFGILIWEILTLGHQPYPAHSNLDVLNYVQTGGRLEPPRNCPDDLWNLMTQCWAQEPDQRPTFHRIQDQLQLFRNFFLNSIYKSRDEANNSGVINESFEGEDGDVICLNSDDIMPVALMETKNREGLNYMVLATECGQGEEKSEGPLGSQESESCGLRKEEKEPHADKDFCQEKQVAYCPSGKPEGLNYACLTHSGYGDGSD

TYK2 = TYK2 (Homo sapiens, UniProt P29597); test: HotSpot radioisotope filter-binding kinase assay; type: biochemical
IRAK1 = IRAK1 (Homo sapiens, UniProt P51617); test: HotSpot radioisotope filter-binding kinase assay; type: biochemical
c-src [2] = molecular target: T3, c-src (Homo sapiens, UniProt P12931); test: HotSpot radioisotope filter-binding kinase assay; type: biochemical
T3 sequence (P12931 whole entry): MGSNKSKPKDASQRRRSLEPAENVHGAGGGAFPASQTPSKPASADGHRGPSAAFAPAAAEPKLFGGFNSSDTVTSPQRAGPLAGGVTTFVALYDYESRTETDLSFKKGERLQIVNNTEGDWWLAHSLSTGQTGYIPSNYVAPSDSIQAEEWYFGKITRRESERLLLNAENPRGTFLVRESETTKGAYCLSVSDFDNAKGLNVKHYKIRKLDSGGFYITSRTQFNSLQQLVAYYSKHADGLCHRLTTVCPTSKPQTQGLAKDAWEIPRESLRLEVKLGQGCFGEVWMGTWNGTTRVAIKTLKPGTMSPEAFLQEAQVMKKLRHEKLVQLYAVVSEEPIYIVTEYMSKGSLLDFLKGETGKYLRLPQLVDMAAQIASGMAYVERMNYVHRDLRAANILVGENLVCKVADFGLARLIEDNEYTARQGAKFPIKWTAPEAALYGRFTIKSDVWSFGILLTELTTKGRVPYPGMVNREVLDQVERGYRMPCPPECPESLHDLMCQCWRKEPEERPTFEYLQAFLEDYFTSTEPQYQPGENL

primary CMML cells = details: cited from earlier work
HIPK4 [3] = molecular target: T4, HIPK4 (Homo sapiens, UniProt Q8NE63); test: HotSpot radioisotope filter-binding kinase assay; type: biochemical
T4 sequence (Q8NE63 1-616): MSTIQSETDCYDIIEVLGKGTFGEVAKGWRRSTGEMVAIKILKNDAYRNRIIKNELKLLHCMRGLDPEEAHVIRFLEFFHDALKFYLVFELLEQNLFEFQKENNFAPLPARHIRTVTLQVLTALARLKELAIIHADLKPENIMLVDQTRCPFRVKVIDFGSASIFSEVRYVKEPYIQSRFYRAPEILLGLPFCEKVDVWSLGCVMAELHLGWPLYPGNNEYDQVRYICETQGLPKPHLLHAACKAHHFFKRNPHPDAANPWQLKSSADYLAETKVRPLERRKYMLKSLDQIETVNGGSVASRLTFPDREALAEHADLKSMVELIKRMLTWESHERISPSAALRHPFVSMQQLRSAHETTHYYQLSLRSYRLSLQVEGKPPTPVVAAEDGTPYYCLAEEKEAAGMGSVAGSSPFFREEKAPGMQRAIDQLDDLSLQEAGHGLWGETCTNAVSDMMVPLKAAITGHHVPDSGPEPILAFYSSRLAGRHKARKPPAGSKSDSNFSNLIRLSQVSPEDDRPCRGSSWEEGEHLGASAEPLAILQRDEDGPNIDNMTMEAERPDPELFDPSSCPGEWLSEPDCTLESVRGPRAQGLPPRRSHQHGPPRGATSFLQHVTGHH

[4] = Steady-state peak plasma concentration after 400 mg daily; type: in vivo; details: humans, calculated/simulated
CSF1R (c-fms) [5] = molecular target: T5, CSF1R (c-fms) (Homo sapiens, UniProt P07333); test: HotSpot radioisotope filter-binding kinase assay; type: biochemical
T5 sequence (P07333 20-972): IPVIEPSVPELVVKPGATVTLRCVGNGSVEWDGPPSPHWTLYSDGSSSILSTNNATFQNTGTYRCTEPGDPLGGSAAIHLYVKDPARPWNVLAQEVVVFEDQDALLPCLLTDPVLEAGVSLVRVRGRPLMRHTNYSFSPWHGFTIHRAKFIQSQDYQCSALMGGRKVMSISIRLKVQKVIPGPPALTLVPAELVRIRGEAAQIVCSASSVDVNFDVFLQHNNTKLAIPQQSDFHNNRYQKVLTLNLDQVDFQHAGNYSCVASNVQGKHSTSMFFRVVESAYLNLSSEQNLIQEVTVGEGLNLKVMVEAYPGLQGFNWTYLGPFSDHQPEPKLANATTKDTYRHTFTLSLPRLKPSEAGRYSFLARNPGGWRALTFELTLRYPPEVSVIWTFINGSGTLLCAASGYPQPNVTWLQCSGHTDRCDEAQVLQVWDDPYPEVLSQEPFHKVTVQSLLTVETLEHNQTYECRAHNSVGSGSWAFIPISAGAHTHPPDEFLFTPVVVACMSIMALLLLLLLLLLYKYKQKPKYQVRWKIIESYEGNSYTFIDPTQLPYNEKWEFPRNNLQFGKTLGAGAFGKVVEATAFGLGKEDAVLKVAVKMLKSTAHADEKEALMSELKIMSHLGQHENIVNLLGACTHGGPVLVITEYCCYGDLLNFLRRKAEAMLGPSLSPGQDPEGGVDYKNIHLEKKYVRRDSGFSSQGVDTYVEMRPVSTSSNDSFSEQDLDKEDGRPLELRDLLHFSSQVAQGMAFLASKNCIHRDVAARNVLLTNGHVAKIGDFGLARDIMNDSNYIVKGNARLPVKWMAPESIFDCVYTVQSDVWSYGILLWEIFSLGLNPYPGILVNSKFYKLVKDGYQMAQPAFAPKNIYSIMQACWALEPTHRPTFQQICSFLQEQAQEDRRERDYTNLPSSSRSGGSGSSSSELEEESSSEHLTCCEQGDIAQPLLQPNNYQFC

TRKC = TRKC (Homo sapiens, UniProt Q16288); test: HotSpot radioisotope filter-binding kinase assay; type: biochemical
ROS1 [6] = molecular target: T2, ROS1; details: read-out: IC50 (class); Momelotinib scale; cited from earlier work
CSF1R (c-fms) [7] = molecular target: T5, CSF1R (c-fms); details: read-out: IC50 (class); Momelotinib scale; cited from earlier work
HIPK4 [8] = molecular target: T4, HIPK4; details: read-out: IC50 (class); Momelotinib scale; cited from earlier work
c-src [9] = molecular target: T3, c-src; details: read-out: IC50 (class); Momelotinib scale; cited from earlier work
[10] = IC50, recombinant kinase, 10 μM ATP

## C1=C/COCc2cc(ccc2OCCN2CCCC2)Nc2nccc(n2)-c2cccc(c2)COC/1 [Pacritinib, 11-(2-pyrrolidin-1-yl-ethoxy)-14,19-dioxa-5,7,26-triaza-tetracyclo[19.3.1.1(2,6). 1(8,12)]heptacosa-1(25),2(26),3,5,8,10,12(27),16,21,23-decaene]
AML cell lines
  viability and survival: reduces both the viability and survival
c-kit; IC50 (class), Pacritinib scale
  IC50: 25 to 50 nM
c-kit; [10]
  IC50: 43.8 nM
TNK1; IC50 (class), Pacritinib scale
  IC50: < 25 nM
TNK1; [10]
  IC50: 15 nM
JAK1
  IC50: > 100 nM
JAK1; read-out: kinase activity remaining (% control)
  remaining activity at 0.1 µM: 82%
JAK1; recombinant kinase, 10 μM ATP
  IC50: Indeterminate
Phosphorylated IRAK1
  phosphorylation of IRAK1: inhibits the phosphorylation of IRAK1
ROS1 [1]; IC50 (class), Pacritinib scale
  IC50: < 25 nM
ROS1 [1]; [10]
  IC50: 18.4 nM
TYK2; IC50 (class), Pacritinib scale
  IC50: 25 to 50 nM
TYK2; [10]
  IC50: 27 nM
IRAK1; IC50 (class), Pacritinib scale
  IC50: < 25 nM
IRAK1; [10]
  IC50: 13.6 nM
c-src [2]; IC50 (class), Pacritinib scale
  IC50: 25 to 50 nM
c-src [2]; [10]
  IC50: 46.7 nM
Primary CMML cells
  activity combined with 5-azacitidine: synergistic activity
HIPK4 [3]; IC50 (class), Pacritinib scale
  IC50: < 25 nM
HIPK4 [3]; [10]
  IC50: 14.5 nM
[4]
  total steady-state levels: 5 to 7 µM
[4]; oral
  mean peak plasma concentration of free drug at steady state: approximately 200 nM
CSF1R (c-fms) [5]; IC50 (class), Pacritinib scale
  IC50: 25 to 50 nM
CSF1R (c-fms) [5]; [10]
  IC50: < 50 nM
TRKC; IC50 (class), Pacritinib scale
  IC50: < 25 nM
TRKC; [10]
  IC50: 18.4 nM

## N#CCNC(=O)c1ccc(-c2ccnc(Nc3ccc(N4CCOCC4)cc3)n2)cc1 [Momelotinib]
ROS1 [6]
  IC50: < 1000 nM
CSF1R (c-fms) [7]
  IC50: < 1000 nM
HIPK4 [8]
  IC50: < 1000 nM
c-src [9]
  IC50: > 1000 nM

From article PMC4993559 (Journal of Experimental Pharmacology, 2016)
